{
  "source": "paper PMC7957917",
  "about": "(ACS Medicinal Chemistry Letters, 2021)",
  "key": {"ICR mice [1]": {"test_system": "ICR mice", "conditions": "ip, cited from earlier work; for tolerated dose: four mice per group"}, "rats": {"test_system": "rats", "assay": "Tolerability after intravenous treatment of rats", "conditions": "1 mg/kg iv, three rats"}, "ICR mice [2]": {"test_system": "ICR mice", "assay": "Acute toxicity study in mice", "conditions": "ip, HCl salts, four mice per group, doses 2.5, 5, 10, 15 mg/kg every 24 h"}, "SARS-CoV-2": {"test_system": "SARS-CoV-2", "conditions": "infected Calu-3 cells; cited from earlier work"}, "DENV-2 (strain 16681)": {"test_system": "DENV-2 (strain 16681)", "conditions": "Huh-7 cells, 48 h postinfection"}, "WNV (strain New York 99)": {"test_system": "WNV (strain New York 99)", "conditions": "Huh-7 cells, 48 h postinfection"}, "[3]": {"assay": "Pharmacokinetic characterization in rats", "type": "in vivo, Sprague Dawley rats", "conditions": "rat, ip, 2.5 mg/kg"}, "RSV A2 strain": {"test_system": "RSV A2 strain", "assay": "Multicycle replication of RSV in A549 cells", "type": "cell-based, respiratory syncytial virus"}},
  "note": "Where “and” joins values, the source holds several entries; their conditions need not be identical. Identical values can stand only once. Like-named read-outs stand apart in the source and are kept apart here.",
  "data": [
    {"smiles": "CC(C)(C)[C@H](NC(=O)[C@H](CCCNC(=N)N)NC(=O)Cc1ccc(CNC(=N)N)cc1)C(=O)N[C@@H](CCCNC(=N)N)C(=O)NCc1ccc(C(=N)N)cc1", "note": "[Inhibitor 1]", "values": [
      {"measurement": "number of deaths at next higher dose", "setting": "ICR mice [1]; at 5 mg/kg", "result": "all mice died and 4 of 4 at 5 mg/kg"},
      {"measurement": "tolerated dose", "setting": "ICR mice [1]", "result": 2.5, "unit": "mg/kg"},
      {"measurement": "tolerability after iv treatment", "setting": "rats", "result": "two of three rats died within 90 min"}
    ]},
    {"smiles": "CC(C)(C)[C@H](NC(=O)[C@H](CCCNC(=N)N)NC(=O)Cc1ccc(CNC(=N)N)cc1)C(=O)N[C@@H](CCCCN)C(=O)NCc1ccc(C(=N)N)cc1", "note": "[Inhibitor 2]", "values": [
      {"measurement": "number of deaths at next higher dose", "setting": "ICR mice [1]; at 10 mg/kg", "result": "4 of 4 at 10 mg/kg"},
      {"measurement": "tolerated dose", "setting": "ICR mice [1]", "result": 5, "unit": "mg/kg"}
    ]},
    {"smiles": "CC(C)(C)[C@H](NC(=O)[C@H](CCONC(=N)N)NC(=O)Cc1ccc(CN)cc1)C(=O)N[C@@H](CCCCN)C(=O)NCc1ccc(C(=N)N)cc1", "note": "[Inhibitor 5]", "values": [
      {"measurement": "tolerated dose", "setting": "ICR mice [2]", "result": 15, "unit": "mg/kg"}
    ]},
    {"smiles": "CC(C)(C)[C@H](NC(=O)[C@H](CCONC(=N)N)NC(=O)Cc1ccc(CNC(=N)N)cc1)C(=O)N[C@@H](CCONC(=N)N)C(=O)NCc1ccc(C(=N)N)cc1", "note": "[Inhibitor 8]", "values": [
      {"measurement": "reduction of SARS-CoV-2 replication", "setting": "SARS-CoV-2", "result": "significant reduction of the SARS-CoV-2 replication"},
      {"measurement": "antiviral potency against DENV-2 (virus titers)", "setting": "DENV-2 (strain 16681)", "result": "significant antiviral potency"},
      {"measurement": "antiviral potency against WNV (virus titers)", "setting": "WNV (strain New York 99)", "result": "significant antiviral potency"},
      {"measurement": "tolerated dose", "setting": "ICR mice [2]", "result": 15, "unit": "mg/kg"},
      {"measurement": "period with plasma levels >1000 ng/mL (∼1.3 μM)", "setting": "[3]", "result": "approximately 3 h"},
      {"measurement": "RSV inhibition compared with reference inhibitor 1 (viral titers)", "setting": "RSV A2 strain; MOI 1, 0.1-10 µM inhibitor, 16-72 h post infection", "result": "strongest antiviral efficacy"},
      {"measurement": "inhibition of RSV replication at 10 µM", "setting": "RSV A2 strain; initial tests, 10 µM", "result": "complete inhibition of virus replication"},
      {"measurement": "tolerability after iv treatment", "setting": "rats", "result": "well-accepted in all three rats without any signs of side effects"}
    ]}
  ]
}
